From patent EP3354264A1, “PROPHYLAXIS AND TREATMENT OF NEISSERIA GONORRHOEAE EYE INFECTION” (Kingston University Higher Education Corporation, priority 2017, dated 2018)
Values after ≈ are worked out from the molar mass of the structure shown. Read-outs that look alike come from different tables or passages of the source.

Assays:
[1] = test system: Neisseria gonorrhoeae strain NCCP11945; assay: Growth inhibition screen of organic acids; type: cell-based; conditions: strain NCCP11945, in vitro, 1 mM
Procedure: (§1) The well characterised N. gonorrhoeae strain NCCP11945 (Chung GT et al. (2008) Complete genome sequence of Neisseria gonorrhoeae NCCP11945. Journal of Bacteriology 190: 6035-6036) was used in the screening stage of this experiment. Eight isolates that were obtained from Public Health England from various European locations were used in the log reduction assays. All isolates were first cultured for 24 hours prior to testing by plating on GC solid medium (Oxoid Limited, Hampshire, UK) with Kellogg supplements and incubating at 37 °C, 5% CO2 (Kellogg DS, Jr., et al., (1963), J Bacteriol 85: 1274-1279).
(§2) A full list of all the organic acids tested in this study is in Table 1. The tested compounds include saturated and unsaturated fatty acids, monoglycerides, dicarboxylic acids, and fatty acid sodium salts. All compounds investigated were resuspended at a concentration of 100 mM in ethanol unless stated. All chemicals were obtained from Sigma-Aldrich (Poole, Dorset, UK).
Other organic acids were also active at this concentration, as noted in Table 1.

[2] = test system: Neisseria gonorrhoeae strain NCCP11945; assay: Measurement of bactericidal action (log reduction); type: cell-based; conditions: strain NCCP11945, 1 mM, 2 minutes
Procedure: as §1, §2
(§3) Log reductions were done using the same method as in Bergsson et al., (1999), Antimicrob Agents Chemother 43: 2790-2792. Briefly, cells were suspended in GC broth (18 g/L GC Base (Oxiod, Limited) with added defined supplements) to an optical density of 0.3 at 520 nm which is approximately equivalent to 107 - 108 cells per millilitre (Macfarlane DE et al. (1980) Improved media for the culture of Neisseria gonorrhoeae. J Med Microbiol 13: 597-607). Five hundred microliters of the suspension was then added to 5 µl of the 100 mM stocks to give a final concentration of 1 mM. A negative control was also done to calculate the reduction in bacterial titre by adding 500 µl to 5 µl ethanol. The tubes were then mixed at room temperature for two minutes and immediately diluted in a 10 fold dilution series down to 10-4. The dilutions were plated by spreading 10 µl on a quarter of a plate and 100 µl of the neat solution was also plated. Plates were incubated at 37 °C for 48 hours. All samples were plated in duplicate. A reduction in viable cell count by more than 4 log10 was deemed to be bactericidal and was selected for further investigation. Bactericidal compounds were then tested at concentrations of 0.75, 0.5, and 0.25 mM (0.125 mM was also used in some potent compounds) to find the minimum bactericidal concentration. Additional testing at lower concentrations was also done on the eight clinical isolates of European origin.

[3] = test system: panel of nine N. gonorrhoeae isolates (strain NCCP11945 and eight isolates from Public Health England); assay: Minimum bactericidal concentration by log reduction, panel of isolates; type: cell-based; conditions: Neisseria gonorrhoeae, 2 min; lowest concentration tested giving an average 4 log10 reduction after two minute exposure; nine isolates; read-out: Minimum bactericidal concentration
Procedure: as §1, §3
As shown by the results in Table 3 which presents data on the log reductions of bacterial cell counts, against a panel of nine N. gonorrhoeae isolates (strain NCCP11945 and eight isolates from Public Health England), myristoleic acid (C14:1cΔ9), palmitoleic acid (C16:1cΔ9), linolenic acid (C18:3cΔ9,12,15), and monocaprin (C10) have a minimal bactericidal concentration, defined as the lowest concentration tested to give an average 4 log10 reduction in bacterial count after a two minute exposure, of 0.5 mM. Against a panel of nine N. gonorrhoeae isolates, lauric acid (C12:0), tridecanoic acid (C13:0), and sodium dodecanoate have a minimal bactericidal concentration of 0.75 mM.

in vitro = type: cell-based, bovine; conditions: red blood cells, bovine RBCs, shaken 1 hour at room temperature
Procedure: (§4) Whole bovine blood was obtained from a local slaughter house (ABP, Guildford, Surrey, UK), adding 90 ml blood to 10 ml of 110 mM tri-sodium citrate anticoagulant. RBCs were isolated the same day. The RBCs were washed by three repeats of centrifugation (1,500 x g for 10 minutes) and resuspension in PBSG. Testing was done following European Union Reference Laboratory for alternatives to animal testing (EURL-ECVAM) guidelines (Lewis RW (2010) DB-ALM Protocol No. 99: Red blood cell (RBC) Test System. EURL ECVAM). The organic acids were made up in DMSO and diluted to a DMSO concentration maximum of 10 % (v/v). Samples were shaken at room temperature for 1 hour and then centrifuged at 10,000 rpm for 2 minutes. An aliquot of 750 µl of the supernatant was taken and absorbance at […] tested.

RBCs = assay: in vitro; type: cell-based, bovine; conditions: at their minimum bactericidal concentration
Procedure: as §4

[4] = test system: Neisseria gonorrhoeae strain NCCP11945; assay: Log reduction in artificial tear fluid; type: cell-based; conditions: artificial tear fluid containing calcium chloride; two minute exposure; Figure 8
Procedure: Artificial tear fluid was made as in Mirejovsky et al., Optometry and Vision Science, (1991), 68: 858-864. […] Neisseria gonorrhoeae strain NCCP11945 was used in these experiments. As the previous log reductions, […] were suspended in GC broth. The cell suspension was centrifuged to remove the culture medium and the bacteria resuspended in the tear fluid. This was then added to the concentrated organic acid candidates. The cells were then counted again after two minute exposure to estimate any reduction due to the exposure to the fatty acid.
In a first experiment, the artificial tear fluid formulation includes calcium chloride to mimic the calcium in natural tears. As shown by the results in Figure 8, the anti-gonococcal properties of myristoleic acid (C14:1cΔ9), palmitoleic acid (C16:1cΔ9), linolenic acid (C18:3cΔ9,12,15), and monocaprin(C10) are retained in the artificial tear fluid formulation containing calcium chloride.
In a second experiment, calcium chloride was omitted from the artificial tear fluid formulation. The results in Figure 9 indicate that the anti-gonococcal properties of lauric acid (C12:0), tridecanoic acid (C13:0), and sodium dodecanoate were retained in the artificial tear fluid formulation without.

[5] = test system: N. gonorrhoeae strain NCCP11945; assay: Cell culture infection model (primary cornea epithelial cells); type: cell-based; conditions: 1 mM, added 90 minutes after infection; Figure 10
Procedure: Primary cornea epithelial cells were obtained from Life Technologies (Paisley, Glasgow, UK) and grown in Keratinocyte serum free medium (Life Technologies), at 37 °C with 5 % CO2 until 80 % confluent. The cells were then trypsin treated, washed, added to 24 welled plates and incubated for a further 24 hours. The medium was replaced and a fresh P+, Opa+ cells N. gonorrhoeae strain NCCP11945 suspension (approximately 10^7 CFU/ml) was added to the cells to get a multiplicity of infection of 10. All samples were done in duplicate. Monocaprin (1 mM, 0.5 mM, 0.25 mM, and 0.125 mM) was either added directly after the bacteria or after 90 minutes. […] The total time of the infection was three hours. The cells were washed five times with 1 ml PBS for each well. The wells were treated with warmed 1 % saponin in PBS and incubated for 10 minutes at 37 °C. After this, 900 µl GC broth was added and log reductions calculated as above. The CFUs of the drug exposed wells were compared to the CFU counts of the Infection controls to estimate the log reduction caused by the action of the monocaprin. Comparisons of the log reductions at different drug administration times at given concentrations was analysed in an unpaired t test using GraphPad Prism (version 6.01).

Neisseria meningitidis = conditions: at the concentration used for the antigonococcal ocular formulation; cited from earlier work
Staphylococcus aureus = conditions: at the concentration used for the antigonococcal ocular formulation; cited from earlier work
Pseudomonas aeruginosa = conditions: at the concentration used for the antigonococcal ocular formulation; cited from earlier work
Streptococcus pneumoniae = conditions: at the concentration used for the antigonococcal ocular formulation; cited from earlier work

CCCCCCCCCC(=O)OCC(O)CO (centres unmarked) [Monocaprin C10, Monocaprin]
Inhibits growth of Neisseria gonorrhoeae [1]: Yes | Inhibits growth of Neisseria gonorrhoeae ([1]; listed as monocaprin): able to inhibit growth | log reduction at 1000 µM ([2]; Neisseria gonorrhoeae, 2 min, read-out: Log reduction of Neisseria gonorrhoeae): > 6 | Log reduction of Neisseria gonorrhoeae [2]: able to cause a log reduction | MBC [3]: 500 µM (≈ 123 µg/mL) | HC50 at 1 h (in vitro; read-out: H50): 1.6 to 2.4 mM | HC50 at 1 h (in vitro; read-out: H50 (mg/L)): 400 to 600 mg/L | RBC lysis assay prediction of irritation (RBCs): not irritating | anti-gonococcal properties in artificial tear fluid [4]: retained | kill of Neisseria gonorrhoeae that has infected human epithelial cells [5]: able to kill | bactericidal to Neisseria meningitidis (Neisseria meningitidis): bactericidal | bactericidal to Staphylococcus aureus (Staphylococcus aureus): bactericidal | bactericidal to Pseudomonas aeruginosa (Pseudomonas aeruginosa): bactericidal | bactericidal to Streptococcus pneumoniae (Streptococcus pneumoniae): bactericidal
